{"source": "paper PMC7366380", "about": "“Discovery of a Potent and Selective Covalent Inhibitor and Activity-Based Probe for the Deubiquitylating Enzyme UCHL1, with Antifibrotic Activity” (Journal of the American Chemical Society, 2020)", "assay_in_all_cases": "In-cell proteome-wide competitive ABPP, HEK293: other DUBs and proteins", "key": {"[1]": {"target": "DUBs and other proteins in HEK293 cells (Homo sapiens, UniProt Q9UPU5)", "sequence (Q9UPU5 whole entry)": "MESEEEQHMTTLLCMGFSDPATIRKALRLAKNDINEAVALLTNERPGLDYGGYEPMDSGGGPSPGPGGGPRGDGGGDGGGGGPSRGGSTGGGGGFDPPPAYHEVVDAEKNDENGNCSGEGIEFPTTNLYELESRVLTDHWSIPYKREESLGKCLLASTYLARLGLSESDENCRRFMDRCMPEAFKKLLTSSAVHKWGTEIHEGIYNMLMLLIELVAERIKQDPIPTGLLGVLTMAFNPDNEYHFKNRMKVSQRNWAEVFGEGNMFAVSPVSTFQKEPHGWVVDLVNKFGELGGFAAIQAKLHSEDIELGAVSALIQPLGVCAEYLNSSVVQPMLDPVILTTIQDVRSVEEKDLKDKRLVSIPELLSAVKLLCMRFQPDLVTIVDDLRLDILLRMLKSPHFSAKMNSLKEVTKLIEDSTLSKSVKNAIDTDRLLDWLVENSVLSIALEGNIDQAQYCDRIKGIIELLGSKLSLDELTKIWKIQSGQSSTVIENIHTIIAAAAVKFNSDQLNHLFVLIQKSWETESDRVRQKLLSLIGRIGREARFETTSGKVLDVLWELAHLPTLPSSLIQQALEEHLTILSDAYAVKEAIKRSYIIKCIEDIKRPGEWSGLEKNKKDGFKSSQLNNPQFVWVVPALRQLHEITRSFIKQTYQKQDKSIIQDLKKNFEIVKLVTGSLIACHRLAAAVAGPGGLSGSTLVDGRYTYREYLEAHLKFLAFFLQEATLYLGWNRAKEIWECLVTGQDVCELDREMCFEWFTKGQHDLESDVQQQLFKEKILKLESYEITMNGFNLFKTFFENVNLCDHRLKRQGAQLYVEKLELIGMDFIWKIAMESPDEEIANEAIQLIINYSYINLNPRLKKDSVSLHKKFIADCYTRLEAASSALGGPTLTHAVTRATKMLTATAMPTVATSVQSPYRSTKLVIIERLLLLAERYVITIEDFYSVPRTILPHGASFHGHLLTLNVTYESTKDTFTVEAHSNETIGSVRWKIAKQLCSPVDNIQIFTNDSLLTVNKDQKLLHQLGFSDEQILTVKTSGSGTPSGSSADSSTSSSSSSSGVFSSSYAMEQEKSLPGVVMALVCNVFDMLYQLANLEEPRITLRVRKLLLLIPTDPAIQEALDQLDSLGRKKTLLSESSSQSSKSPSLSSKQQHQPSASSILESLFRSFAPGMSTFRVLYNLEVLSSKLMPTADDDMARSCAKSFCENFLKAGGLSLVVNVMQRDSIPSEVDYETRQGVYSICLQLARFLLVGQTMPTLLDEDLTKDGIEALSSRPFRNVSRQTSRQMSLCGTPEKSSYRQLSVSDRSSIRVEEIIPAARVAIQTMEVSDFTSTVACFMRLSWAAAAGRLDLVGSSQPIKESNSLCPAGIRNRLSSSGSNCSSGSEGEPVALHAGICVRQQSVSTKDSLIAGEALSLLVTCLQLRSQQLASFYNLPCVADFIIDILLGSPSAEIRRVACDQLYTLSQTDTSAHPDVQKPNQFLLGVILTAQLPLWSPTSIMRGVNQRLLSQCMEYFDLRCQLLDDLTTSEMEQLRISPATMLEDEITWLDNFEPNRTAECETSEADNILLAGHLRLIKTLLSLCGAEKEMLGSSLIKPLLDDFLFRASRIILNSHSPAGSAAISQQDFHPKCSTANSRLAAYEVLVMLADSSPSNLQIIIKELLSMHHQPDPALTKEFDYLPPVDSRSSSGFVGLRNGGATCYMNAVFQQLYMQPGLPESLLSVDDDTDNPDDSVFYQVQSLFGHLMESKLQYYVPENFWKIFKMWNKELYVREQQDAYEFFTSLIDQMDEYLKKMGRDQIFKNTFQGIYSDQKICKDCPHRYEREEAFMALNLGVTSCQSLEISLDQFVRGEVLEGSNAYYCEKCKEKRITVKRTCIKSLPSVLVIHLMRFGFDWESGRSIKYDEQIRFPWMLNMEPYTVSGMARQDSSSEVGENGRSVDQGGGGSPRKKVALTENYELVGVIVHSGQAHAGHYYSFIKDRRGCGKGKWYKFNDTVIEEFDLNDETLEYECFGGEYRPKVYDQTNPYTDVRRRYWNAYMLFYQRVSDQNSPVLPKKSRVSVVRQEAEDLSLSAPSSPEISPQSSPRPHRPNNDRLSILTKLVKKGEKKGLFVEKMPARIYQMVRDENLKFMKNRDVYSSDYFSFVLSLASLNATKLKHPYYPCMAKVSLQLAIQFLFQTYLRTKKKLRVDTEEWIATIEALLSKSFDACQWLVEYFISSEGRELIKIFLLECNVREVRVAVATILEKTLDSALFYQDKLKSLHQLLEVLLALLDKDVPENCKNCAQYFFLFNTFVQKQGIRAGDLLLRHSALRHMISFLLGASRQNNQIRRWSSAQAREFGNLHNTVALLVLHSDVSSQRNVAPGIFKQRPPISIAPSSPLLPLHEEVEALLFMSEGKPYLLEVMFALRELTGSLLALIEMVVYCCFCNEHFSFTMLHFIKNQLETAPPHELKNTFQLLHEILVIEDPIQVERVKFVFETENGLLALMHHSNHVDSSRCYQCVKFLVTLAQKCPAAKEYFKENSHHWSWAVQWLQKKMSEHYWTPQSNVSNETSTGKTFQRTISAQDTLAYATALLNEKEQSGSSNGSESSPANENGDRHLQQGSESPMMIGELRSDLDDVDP", "conditions": "replicates A-C; for Log2 reporter intensity values: USP24: DMSO substract (FC); for Log2 reporter intensity values: USP24, DMSO subtracted"}, "[2]": {"target": "DUBs and other proteins in HEK293 cells (Homo sapiens, UniProt Q93008)", "conditions": "replicates A-C; for Log2 reporter intensity values: USP9X;USP9Y: DMSO substract (FC); for Log2 reporter intensity values: USP9X;USP9Y, DMSO subtracted"}, "[3]": {"target": "T1, DUBs and other proteins in HEK293 cells (Homo sapiens, UniProt P51665)", "T1 sequence (P51665 1-324)": "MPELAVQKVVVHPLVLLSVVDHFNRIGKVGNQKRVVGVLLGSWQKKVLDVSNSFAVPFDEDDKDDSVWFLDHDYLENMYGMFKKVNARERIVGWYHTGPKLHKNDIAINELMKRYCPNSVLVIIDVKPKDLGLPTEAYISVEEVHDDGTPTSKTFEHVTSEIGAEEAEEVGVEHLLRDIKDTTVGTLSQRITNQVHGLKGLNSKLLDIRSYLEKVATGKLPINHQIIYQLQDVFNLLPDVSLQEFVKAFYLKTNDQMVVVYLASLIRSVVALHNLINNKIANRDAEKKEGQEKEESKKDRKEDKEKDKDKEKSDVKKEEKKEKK", "conditions": "replicates A-C; for Log2 reporter intensity values: PSMD7: DMSO substract (FC); for Log2 reporter intensity values: PSMD7, DMSO subtracted"}, "[4]": {"target": "DUBs and other proteins in HEK293 cells (Homo sapiens, UniProt Q96FW1)", "sequence (Q96FW1 whole entry)": "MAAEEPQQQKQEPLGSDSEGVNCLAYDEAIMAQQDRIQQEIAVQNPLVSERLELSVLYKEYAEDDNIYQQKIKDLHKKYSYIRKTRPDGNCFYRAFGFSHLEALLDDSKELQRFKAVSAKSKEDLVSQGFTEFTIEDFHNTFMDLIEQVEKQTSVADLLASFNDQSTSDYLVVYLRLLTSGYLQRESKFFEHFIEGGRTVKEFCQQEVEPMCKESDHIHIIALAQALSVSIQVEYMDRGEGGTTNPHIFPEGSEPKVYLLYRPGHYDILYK", "conditions": "replicates A-C; for Log2 reporter intensity values: OTUB1: DMSO substract (FC); for Log2 reporter intensity values: OTUB1, DMSO subtracted"}, "[5]": {"target": "DUBs and other proteins in HEK293 cells (Homo sapiens, UniProt P54578)", "sequence (P54578 whole entry)": "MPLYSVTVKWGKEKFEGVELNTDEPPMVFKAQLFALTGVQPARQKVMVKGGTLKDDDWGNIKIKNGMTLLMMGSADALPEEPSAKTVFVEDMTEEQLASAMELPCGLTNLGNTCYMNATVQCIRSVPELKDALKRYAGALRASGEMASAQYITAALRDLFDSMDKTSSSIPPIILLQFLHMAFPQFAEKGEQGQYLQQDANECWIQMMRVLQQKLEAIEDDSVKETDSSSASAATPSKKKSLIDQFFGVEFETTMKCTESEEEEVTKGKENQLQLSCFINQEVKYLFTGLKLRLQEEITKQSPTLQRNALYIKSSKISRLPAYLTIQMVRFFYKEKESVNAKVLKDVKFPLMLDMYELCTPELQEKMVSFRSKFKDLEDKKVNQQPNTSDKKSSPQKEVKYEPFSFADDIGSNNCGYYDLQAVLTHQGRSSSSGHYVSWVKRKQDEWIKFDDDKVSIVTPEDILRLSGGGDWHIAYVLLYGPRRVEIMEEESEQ", "conditions": "replicates A-C; for Log2 reporter intensity values: USP14: competition with ABP 2, DMSO substract (FC); for Log2 reporter intensity values: USP14, DMSO subtracted"}, "[6]": {"target": "DUBs and other proteins in HEK293 cells (Homo sapiens, UniProt O00487)", "sequence (O00487 whole entry)": "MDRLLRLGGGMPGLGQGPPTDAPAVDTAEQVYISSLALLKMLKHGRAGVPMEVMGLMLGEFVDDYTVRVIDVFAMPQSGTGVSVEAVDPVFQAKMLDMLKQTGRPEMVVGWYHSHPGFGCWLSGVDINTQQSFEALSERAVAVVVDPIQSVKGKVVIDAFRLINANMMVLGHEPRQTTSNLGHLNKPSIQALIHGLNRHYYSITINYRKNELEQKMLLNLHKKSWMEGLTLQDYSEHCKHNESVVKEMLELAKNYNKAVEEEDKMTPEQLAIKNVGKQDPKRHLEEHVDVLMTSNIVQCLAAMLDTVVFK", "conditions": "replicates A-C; for Log2 reporter intensity values: PSMD14: DMSO substract (FC); for Log2 reporter intensity values: PSMD14, DMSO subtracted"}, "[7]": {"target": "T2, DUBs and other proteins in HEK293 cells (Homo sapiens, UniProt Q86UV5)", "T2 sequence (Q86UV5 1-1035)": "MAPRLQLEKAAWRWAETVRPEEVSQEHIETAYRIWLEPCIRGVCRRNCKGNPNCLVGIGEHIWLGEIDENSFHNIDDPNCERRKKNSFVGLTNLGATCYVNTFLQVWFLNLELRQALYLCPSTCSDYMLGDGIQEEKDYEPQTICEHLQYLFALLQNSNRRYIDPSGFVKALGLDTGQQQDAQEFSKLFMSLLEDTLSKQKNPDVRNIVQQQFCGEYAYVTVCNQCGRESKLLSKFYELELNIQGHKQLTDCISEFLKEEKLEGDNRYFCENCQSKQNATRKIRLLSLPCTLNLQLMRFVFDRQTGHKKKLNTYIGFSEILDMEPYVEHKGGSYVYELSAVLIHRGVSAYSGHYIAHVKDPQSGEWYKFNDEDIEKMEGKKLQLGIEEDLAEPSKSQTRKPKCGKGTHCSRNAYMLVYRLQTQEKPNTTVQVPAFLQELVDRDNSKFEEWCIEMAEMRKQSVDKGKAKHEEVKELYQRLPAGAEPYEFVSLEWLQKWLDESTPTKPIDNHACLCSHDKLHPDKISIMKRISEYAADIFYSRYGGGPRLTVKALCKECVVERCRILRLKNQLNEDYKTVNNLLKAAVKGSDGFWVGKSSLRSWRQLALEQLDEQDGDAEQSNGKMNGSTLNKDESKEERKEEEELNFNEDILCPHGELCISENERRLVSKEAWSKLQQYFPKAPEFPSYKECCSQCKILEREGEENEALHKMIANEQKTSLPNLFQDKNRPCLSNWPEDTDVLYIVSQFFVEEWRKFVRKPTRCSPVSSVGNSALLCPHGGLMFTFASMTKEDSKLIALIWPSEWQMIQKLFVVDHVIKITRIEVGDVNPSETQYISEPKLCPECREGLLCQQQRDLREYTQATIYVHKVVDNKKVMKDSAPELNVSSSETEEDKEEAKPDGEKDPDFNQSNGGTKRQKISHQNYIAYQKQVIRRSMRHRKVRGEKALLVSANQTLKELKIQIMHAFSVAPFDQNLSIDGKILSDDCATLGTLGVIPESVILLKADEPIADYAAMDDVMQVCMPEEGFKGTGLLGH", "conditions": "for Log2 reporter intensity values: USP48: DMSO substract (FC), replicates A-B; for Log2 reporter intensity values: USP48, DMSO subtracted"}, "[8]": {"conditions": "1 at 1 μM, competition with ABP 2"}, "[9]": {"conditions": "1 at 4 μM, competition with ABP 2"}}, "note": "Values joined by “and” are separate entries in the source; they are usually repeats but may differ in a detail not shown here. Identical values can stand only once."}
{"smiles": "N#CN1CCC[C@H]1C(=O)N1CCc2c(-c3c[nH]c4ncccc34)cccc21", "note": "[Compound 1]", "values": [{"measurement": "Log2 reporter intensity values: USP24", "setting": "[1]; [8]", "value": "1.001 and 1.09 and 1.248"}, {"measurement": "Log2 reporter intensity values: USP24", "setting": "[1]; [9]", "value": "0.9741 and 0.9874 and 0.9877"}, {"measurement": "Log2 reporter intensity values", "setting": "[1]; 1_1 μM", "value": "-0.002058 and 0.08693 and 0.2444"}, {"measurement": "Log2 reporter intensity values", "setting": "[1]; 1_4 μM", "value": "-0.02929 and -0.01601 and -0.01571"}, {"measurement": "Log2 reporter intensity values", "setting": "[1]; 1 at 1 μM", "value": "0.00188 and 0.1247 and 0.3193"}, {"measurement": "Log2 reporter intensity values", "setting": "[1]; 1 at 4 μM", "value": "-0.0379 and -0.01836 and -0.01793"}, {"measurement": "Log2 reporter intensity values: USP9X;USP9Y", "setting": "[2]; [8]", "value": "1.022 (2×) and 0.9739"}, {"measurement": "Log2 reporter intensity values: USP9X;USP9Y", "setting": "[2]; [9]", "value": "0.949 and 1.006 and 0.9815"}, {"measurement": "Log2 reporter intensity values", "setting": "[2]; 1_1 μM", "value": "0.0219 and 0.02206 and -0.02613"}, {"measurement": "Log2 reporter intensity values", "setting": "[2]; 1_4 μM", "value": "-0.05104 and 0.005497 and -0.01849"}, {"measurement": "Log2 reporter intensity values", "setting": "[2]; 1 at 1 μM", "value": "0.0313 and 0.03153 and -0.03815"}, {"measurement": "Log2 reporter intensity values", "setting": "[2]; 1 at 4 μM", "value": "-0.07554 and 0.007953 and -0.02689"}, {"measurement": "Log2 reporter intensity values: PSMD7", "setting": "[3]; [8]", "value": "1.13 and 1.005 and 1.053"}, {"measurement": "Log2 reporter intensity values: PSMD7", "setting": "[3]; [9]", "value": "1.07 and 1.047 and 1.231"}, {"measurement": "Log2 reporter intensity values", "setting": "[3]; 1_1 μM", "value": "0.1278 and 0.002507 and 0.05011"}, {"measurement": "Log2 reporter intensity values", "setting": "[3]; 1_4 μM", "value": "0.06753 and 0.04399 and 0.2288"}, {"measurement": "Log2 reporter intensity values", "setting": "[3]; 1 at 1 μM", "value": "0.1768 and 0.007299 and 0.07406"}, {"measurement": "Log2 reporter intensity values", "setting": "[3]; 1 at 4 μM", "value": "0.09774 and 0.06565 and 0.3003"}, {"measurement": "Log2 reporter intensity values: OTUB1", "setting": "[4]; [8]", "value": "1.079 and 1.058 and 1.055"}, {"measurement": "Log2 reporter intensity values: OTUB1", "setting": "[4]; [9]", "value": "0.9564 and 0.9957 and 1.033"}, {"measurement": "Log2 reporter intensity values", "setting": "[4]; 1_1 μM", "value": "0.07905 and 0.05739 and 0.05461"}, {"measurement": "Log2 reporter intensity values", "setting": "[4]; 1_4 μM", "value": "-0.04373 and -0.004436 and 0.03334"}, {"measurement": "Log2 reporter intensity values", "setting": "[4]; 1 at 1 μM", "value": "0.1099 and 0.08068 and 0.07687"}, {"measurement": "Log2 reporter intensity values", "setting": "[4]; 1 at 4 μM", "value": "-0.06433 and -0.00624 and 0.04749"}, {"measurement": "Log2 reporter intensity values: USP14", "setting": "[5]; 1 at 1 μM", "value": "1.068 and 1.073 and 1.08"}, {"measurement": "Log2 reporter intensity values: USP14", "setting": "[5]; 1 at 4 μM", "value": "1.026 and 1.014 and 1.052"}, {"measurement": "Log2 reporter intensity values", "setting": "[5]; 1_1 μM", "value": "0.06753 and 0.073 and 0.0796"}, {"measurement": "Log2 reporter intensity values", "setting": "[5]; 1_4 μM", "value": "0.02617 and 0.01386 and 0.05174"}, {"measurement": "Log2 reporter intensity values", "setting": "[5]; 1 at 1 μM", "value": "0.09459 and 0.102 and 0.1108"}, {"measurement": "Log2 reporter intensity values", "setting": "[5]; 1 at 4 μM", "value": "0.03759 and 0.02017 and 0.07309"}, {"measurement": "Log2 reporter intensity values: PSMD14", "setting": "[6]; [8]", "value": "1.038 and 0.9518 and 1.018"}, {"measurement": "Log2 reporter intensity values: PSMD14", "setting": "[6]; [9]", "value": "1.04 and 0.9939 and 0.9281"}, {"measurement": "Log2 reporter intensity values", "setting": "[6]; 1_1 μM", "value": "0.0358 and -0.05091 and 0.01579"}, {"measurement": "Log2 reporter intensity values", "setting": "[6]; 1_4 μM", "value": "0.03701 and -0.008736 and -0.0746"}, {"measurement": "Log2 reporter intensity values", "setting": "[6]; 1 at 1 μM", "value": "0.05445 and -0.07134 and 0.02638"}, {"measurement": "Log2 reporter intensity values", "setting": "[6]; 1 at 4 μM", "value": "0.05612 and -0.008793 and -0.1077"}, {"measurement": "Log2 reporter intensity values: USP48", "setting": "[7]; [8]", "value": "1.114 and 0.9292"}, {"measurement": "Log2 reporter intensity values: USP48", "setting": "[7]; [9]", "value": "1.018 and 0.949"}, {"measurement": "Log2 reporter intensity values", "setting": "[7]; 1_1 μM, replicates A-B (C NaN)", "value": "0.113 and -0.07208"}, {"measurement": "Log2 reporter intensity values", "setting": "[7]; 1_4 μM, replicates A-B (C NaN)", "value": "0.01672 and -0.0523"}, {"measurement": "Log2 reporter intensity values", "setting": "[7]; 1 at 1 μM, replicates A-C", "value": "0.1561 and -0.1059"}, {"measurement": "Log2 reporter intensity values", "setting": "[7]; 1 at 4 μM, replicates A-C", "value": "0.02574 and -0.07554"}]}
{"smiles": "C#Cc1cnc2[nH]cc(-c3cccc4c3CCN4C(=O)[C@@H]3CCCN3C#N)c2c1", "note": "[Compound 2]", "values": [{"measurement": "Log2 reporter intensity values: USP24", "setting": "[1]; 20 nM ABP 2 alone", "value": "1.118 and 1.126 and 1.127"}, {"measurement": "Log2 reporter intensity values", "setting": "[1]; 20 nM ABP 2", "value": "0.1605 and 0.1713 and 0.1729 and 0.1143 and 0.1227 and 0.1239"}, {"measurement": "Log2 reporter intensity values: USP9X;USP9Y", "setting": "[2]; 20 nM ABP 2 alone", "value": "0.9211 and 0.9416 and 0.9589"}, {"measurement": "Log2 reporter intensity values", "setting": "[2]; 20 nM ABP 2", "value": "-0.08683 and -0.06047 and -0.07892 and -0.05844 and -0.04108"}, {"measurement": "Log2 reporter intensity values: PSMD7", "setting": "[3]; 20 nM ABP 2 alone", "value": 0.8915}, {"measurement": "Log2 reporter intensity values", "setting": "[3]; 20 nM ABP 2", "value": "0.1122 and -0.1657 and 0.02 and 0.07832"}, {"measurement": "Log2 reporter intensity values: OTUB1", "setting": "[4]; 20 nM ABP 2 alone", "value": "1.065 and 1.087 and 1.08"}, {"measurement": "Log2 reporter intensity values", "setting": "[4]; 20 nM ABP 2", "value": "0.1206 and 0.06511 and 0.07959"}, {"measurement": "Log2 reporter intensity values", "setting": "[5]; 20 nM ABP 2", "value": "0.1674 and 0.2186 and 0.2005 and 0.1633 and 0.1489"}, {"measurement": "Log2 reporter intensity values: PSMD14", "setting": "[6]; 20 nM ABP 2 alone", "value": "0.9494 and 1.033 and 1.015"}, {"measurement": "Log2 reporter intensity values", "setting": "[6]; 20 nM ABP 2", "value": "-0.07484 and 0.0464 and 0.02103 and -0.05321 and 0.03002 and 0.01203"}, {"measurement": "Log2 reporter intensity values: USP48", "setting": "[7]; 20 nM ABP 2 alone", "value": "0.9588 and 0.9788"}, {"measurement": "Log2 reporter intensity values", "setting": "[7]; 20 nM ABP 2, replicates A-B (C NaN)", "value": "-0.04252 and -0.02245"}, {"measurement": "Log2 reporter intensity values", "setting": "[7]; 20 nM ABP 2, replicates A-C", "value": "-0.06076 and -0.03088"}]}
